Laboratory results from patent publication US20100298141A1, “SUBSTITUTED PYRIDINE N-OXIDE HERBICIDES” (E. I. DU PONT DE NEMOURS AND COMPANY, priority 2007, published 2010).

Tests used:
giant foxtail [1] = assay: Test A pre-/postemergence greenhouse test; assay type: in vivo, Setaria faberi; conditions: for Foxtail, Giant plant response rating: 0 to 100 scale
In short: (§1)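 Two application timings were run side by side in the greenhouse. Before emergence, compound went onto the soil surface of loam–sand pots as a directed spray; after emergence, plants at 2–10 cm and the one- to two-leaf stage were treated. Visual injury versus controls was rated at approximately day ten.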

morningglory = assay: Test A pre-/postemergence greenhouse test; assay type: in vivo, Ipomoea spp.; conditions: for Morningglory plant response rating: 0 to 100 scale
In short: as §1

redroot pigweed = assay: Test A pre-/postemergence greenhouse test; assay type: in vivo, Amaranthus retroflexus; conditions: for Pigweed plant response rating: 0 to 100 scale
In short: as §1

wheat [2] = assay: Test A pre-/postemergence greenhouse test; assay type: in vivo, Triticum aestivum; conditions: for Wheat plant response rating: 0 to 100 scale
In short: as §1

blackgrass = assay: Test C pre-/postemergence test; assay type: in vivo, Alopecurus myosuroides
In short: (§2)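 Test chemicals were formulated with surfactant in a non-phytotoxic solvent and sprayed both on freshly planted seeds (preemergence) and on 1- to 4-leaf plants of 2–18 cm (postemergence). Flooded-paddy pots received compound directly into 3 cm of standing water, maintained for the test.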

downy brome = assay: Test C pre-/postemergence test; assay type: in vivo, Bromus tectorum
In short: as §2

wheat [3] = assay: Test C pre-/postemergence test; assay type: in vivo, Triticum aestivum; conditions: Preemergence
In short: as §2

wild oat = assay: Test C pre-/postemergence test; assay type: in vivo, Avena fatua; conditions: Preemergence
In short: as §2

catchweed bedstraw = assay: Test C pre-/postemergence test; assay type: in vivo, Galium aparine; conditions: Preemergence
In short: as §2

Surinam grass = assay: Test C pre-/postemergence test; assay type: in vivo, Brachiaria decumbens; conditions: Preemergence
In short: as §2

cocklebur = assay: Test C pre-/postemergence test; assay type: in vivo, Xanthium strumarium
In short: as §2

woolly cupgrass = assay: Test C pre-/postemergence test; assay type: in vivo, Eriochloa villosa; conditions: Preemergence
In short: as §2

giant foxtail [4] = assay: Test C pre-/postemergence test; assay type: in vivo, Setaria faberii; conditions: Preemergence
In short: as §2

kochia = assay: Test C pre-/postemergence test; assay type: in vivo, Kochia scoparia; conditions: Preemergence
In short: as §2

lambsquarters = assay: Test C pre-/postemergence test; assay type: in vivo, Chenopodium album; conditions: Preemergence
In short: as §2

eastern black nightshade = assay: Test C pre-/postemergence test; assay type: in vivo, Solanum ptycanthum; conditions: Preemergence
In short: as §2

common ragweed = assay: Test C pre-/postemergence test; assay type: in vivo, Ambrosia elation; conditions: 62 g ai/ha, Preemergence; scale 0 to 100
In short: as §2

[5] = tested on: common (oilseed) sunflower; assay: Test C pre-/postemergence test; assay type: in vivo, Helianthus annuus; conditions: 62 g ai/ha, Preemergence; scale 0 to 100
In short: as §2

velvetleaf = assay: Test C pre-/postemergence test; assay type: in vivo, Abutilon theophrasti; conditions: Preemergence
In short: as §2

[6] = Postemergence, 125 g ai/ha, 0 is no effect, 100 is complete control
[7] = Postemergence, 500 g ai/ha, 0 is no effect, 100 is complete control
[8] = Preemergence, 125 g ai/ha, 0 no effect, 100 complete control
[9] = Preemergence, 500 g ai/ha, 0 to 100 scale where 0 is no effect and 100 is complete control
[10] = 62 g ai/ha, Preemergence, scale 0 to 100
[11] = Preemergence, 31 g ai/ha, scale 0 to 100 (0 no effect, 100 complete control)
[12] = preemergence, 125 g ai/ha, scale 0 (no effect) to 100 (complete control)
[13] = 31 g ai/ha, scale 0 to 100 (0 no effect, 100 complete control)

## CC(c1c(C(F)(F)F)nn(C)c1OCC(F)(F)F)S(=O)(=O)c1cccc[n+]1[O-] (racemic) [Compound 33]
Giant foxtail [1]; [6]
  Foxtail, Giant plant response rating: 90
Giant foxtail [1]; [7]
  Foxtail, Giant plant response rating: 90
Giant foxtail [1]; [8]
  Foxtail, Giant plant response rating: 100
Giant foxtail [1]; [9]
  Plant response rating, Foxtail, Giant: 100
morningglory; [6]
  Morningglory plant response rating: 60
morningglory; [7]
  Morningglory plant response rating: 90
morningglory; [8]
  Morningglory plant response rating: 90
morningglory; [9]
  Plant response rating, Morningglory: 90
Redroot pigweed; [6]
  Pigweed plant response rating: 60
Redroot pigweed; [7]
  Pigweed plant response rating: 90
Redroot pigweed; [8]
  Pigweed plant response rating: 100
Redroot pigweed; [9]
  Plant response rating, Pigweed: 100
Wheat [2]; [6]
  Wheat plant response rating: 60
Wheat [2]; [7]
  Wheat plant response rating: 70
Wheat [2]; [8]
  Wheat plant response rating: 60
Wheat [2]; [9]
  Plant response rating, Wheat: 100
blackgrass; [10]
  Blackgrass plant response rating: 85
blackgrass; [11]
  Plant response rating, Blackgrass: 80
blackgrass; Preemergence, 250 g ai/ha
  Plant response rating (0 to 100), Blackgrass: 100
blackgrass; [12]
  Blackgrass plant response rating: 100
Downy brome; [10]
  Bromegrass, Downy plant response rating: 20
Downy brome; [11]
  Plant response rating, Bromegrass, Downy: 0
Downy brome; Preemergence, 250 g ai/ha
  Plant response rating (0 to 100), Bromegrass, Downy: 98
Downy brome; [12]
  Bromegrass, Downy plant response rating: 70
Wheat [3]; 62 g ai/ha, scale 0 to 100
  Wheat plant response rating: 50
Wheat [3]; [13]
  Plant response rating, Wheat: 30
Wild oat; 62 g ai/ha, scale 0 to 100
  Oat, Wild plant response rating: 65
Wild oat; [13]
  Plant response rating, Oat, Wild: 50
Catchweed bedstraw; 62 g ai/ha, scale 0 to 100
  Galium plant response rating: 100
Catchweed bedstraw; [13]
  Plant response rating, Galium: 100
Catchweed bedstraw; 250 g ai/ha
  Plant response rating (0 to 100), Galium: 100
Surinam grass; 62 g ai/ha, scale 0 to 100
  Surinam Grass plant response rating: 100
Surinam grass; [13]
  Plant response rating, Surinam Grass: 80
cocklebur; [10]
  Cocklebur plant response rating: 0
cocklebur; [11]
  Plant response rating, Cocklebur: 0
cocklebur; Preemergence, 250 g ai/ha
  Plant response rating (0 to 100), Cocklebur: 45
cocklebur; [12]
  Cocklebur plant response rating: 40
Woolly cupgrass; 62 g ai/ha, scale 0 to 100
  Cupgrass, Woolly plant response rating: 98
Woolly cupgrass; [13]
  Plant response rating, Cupgrass, Woolly: 85
Woolly cupgrass; 250 g ai/ha
  Plant response rating (0 to 100), Cupgrass, Woolly: 100
Giant foxtail [4]; 62 g ai/ha, scale 0 to 100
  Foxtail, Giant plant response rating: 100
Giant foxtail [4]; [13]
  Plant response rating, Foxtail, Giant: 98
Giant foxtail [4]; 250 g ai/ha
  Plant response rating (0 to 100), Foxtail, Giant: 100
kochia; 62 g ai/ha, scale 0 to 100
  Kochia plant response rating: 100
kochia; [13]
  Plant response rating, Kochia: 100
lambsquarters; 62 g ai/ha, scale 0 to 100
  Lambsquarters plant response rating: 100
lambsquarters; [13]
  Plant response rating, Lambsquarters: 90
Eastern black nightshade; 62 g ai/ha, scale 0 to 100
  Nightshade plant response rating: 85
Eastern black nightshade; [13]
  Plant response rating, Nightshade: 70
Common ragweed
  Ragweed plant response rating: 10
[5]
  Sunflower plant response rating: 0
velvetleaf; 62 g ai/ha, scale 0 to 100
  Velvetleaf plant response rating: 100
velvetleaf; [13]
  Plant response rating, Velvetleaf: 100
